# Assay: gradient 5% acetonitrile 3 min, to 50% in 2 min, to 85% in 15 min, held 3 min, 100 µL/min
# Settings: column: Zorbax Extend-C18 2.1 x 50 mm; eluents: water / acetonitrile, 0.1% formic acid
# Summary of the method: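 Mixtures of ~100 pure standards were chromatographed on a Zorbax Extend-C18 column (2.1 × 50 mm, 1.8 μm) at 100 μL/min using water and acetonitrile, each with 0.1% formic acid. Detection used a quadrupole time-of-flight mass spectrometer in positive and negative ionization mode, and data collection spanned 3 months. Retention time was obtained from adduct peaks picked computationally and each checked manually.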
row,Compound,RP-LC retention time [s]
1,COc1ccc2c(c1)C1(CCN(C(=O)CCc3ccccc3)C1)C(=O)N2C (configuration not stated),850
2,COc1ccc(-c2nc(NC3CCCCC3)c3ccccc3n2)cc1,856
3,Cc1ccc(C(=O)N2CCC3(CC2)NC(=O)c2cc(C)ccc2N3C)cc1,805
4,COc1ccc(C2(C(=O)N3CCC(c4nc(CCOCC5CCCC5)no4)C3)CC2)cc1 (configuration not stated),1060
5,Cc1ccc(S(=O)(=O)N2CCCC(CCC(=O)NCc3ccccn3)C2)cc1 (configuration not stated),656
6,O=C(Cc1csc(-n2cccc2)n1)NCCc1c[nH]c2ccccc12,840
7,Cc1cc(N2CCN(C(=O)Nc3ccc4c(c3)OCCO4)CC2)nc(N2CCOCC2)n1,609
8,O=C(NC1CCCC1)c1ccc(Cn2nc(N3CCN(c4ccc(F)cc4)CC3)ccc2=O)o1,853
9,O=C(NC1CCCCCC1)c1cn(-c2cc(-c3nc(C4CC4)no3)ccn2)cn1,1040
10,CCc1noc([C@@H]2CC(F)(F)CN2C(=O)c2cocn2)n1,733
11,CCNc1cc(C)nc(N2CCN(C(=O)CC)CC2)n1,567
12,CCOC(=O)c1c(C)oc2nc(C)nc(N3CCC(c4ccccc4)C3)c12 (configuration not stated),1130
13,CC(C)n1c(N2CCN(C(=O)c3cccs3)CC2)cc(=O)n(C(C)C)c1=O,812
14,O=C(NCc1ccccc1Cl)C1CCN(c2cnc3nccnc3c2)CC1,769
15,Cc1cccc(C2CCCN2C(=O)c2cnn3cc(Br)cnc23)c1 (configuration not stated),869
16,NC(=O)c1ccc(Oc2ccc(C(N)=O)cc2)cc1,654
17,Cn1cc(C(=O)C(=O)NC2CCCCC2)c2ccccc21,1070
18,O=C(Cn1nnc2ccccc2c1=O)NCCc1c[nH]c2ccc(Cl)cc12,819
19,O=S(=O)(c1cccc(-c2nnc(-c3ccc(Cl)cc3)o2)c1)N1CCCCC1,1160

row,Compound,RP-LC retention time [s]
1,O=C(c1ccc2c(c1)OCO2)N1C[C@@H](CO)[C@H](c2ccncc2)C1,558
2,CCc1ccc(OCC(=O)N2CCCCC2CCN2CCCCC2)cc1 (configuration not stated),703
3,COc1ccc(C2(C(=O)Nc3cc(-c4ccsc4)no3)CC2)cc1,1030
4,Cc1noc(C2(NS(=O)(=O)c3ccc(C#N)cc3)CCCCC2)n1,773
5,CCc1ccc(-n2cc(C(=O)OCC(=O)OC)c3ccccc3c2=O)cc1,1080
6,O=C(NC1CCSC1=O)c1ccc(-n2cccn2)nn1 (configuration not stated),657
7,O=C(Cn1ncc2c(N3CCN(c4ccccn4)CC3)ncnc21)Nc1cc(F)cc(F)c1,634
8,Cn1nc(-c2nc(C3CC3)no2)c2c1CCN(S(=O)(=O)c1cccc(F)c1)C2,920
9,Cc1cc(N2CCCC2)nc(N2CCN(C(=O)c3ccc(C(C)(C)C)cc3)CC2)n1,813
10,Cc1cc(C)cc(NS(=O)(=O)c2cc3c4c(c2)CCC(=O)N4CCC3)c1,874
11,CC(C)NC(=O)Cc1nnc2cc(-c3nc(C4CC4)no3)ccn12,777
12,COc1cc(OC)cc(-c2nc(-c3cn(Cc4ccccc4)nn3)no2)c1,1000
13,CCC(NC(=O)c1cn2cc(C)ccc2n1)c1ccc(OC)cc1 (configuration not stated),697
14,Cc1cc(C)c(S(=O)(=O)N2CCCC2c2nc(-c3ccc(Cl)cc3)no2)cc1C (configuration not stated),1340
15,O=C(CN1C(=O)C2CCCCN2c2ccc(C(=O)N3CCCC3)cc21)Nc1ccc2c(c1)OCO2 (configuration not stated),794
16,CC12CCC3C(CC=C4CC(O)CCC43C)C1C/C(=C\N1CCCC1)C2=O (configuration not stated),943
17,COc1cc(-c2noc(Cn3nc4ccc(-c5ccccc5)nn4c3=O)n2)cc(OC)c1OC,862
18,O=C(NCCC1=CCCCC1)C1CCN(S(=O)(=O)c2ccc(-c3noc(C4CC4)n3)cc2)CC1,1090
